The text below walks through data of ChEMBL document CHEMBL1201862, “PubChem BioAssay data set” (2004).

SMILES strings stand for the structures.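 Values below derive from 48-hour exposures of cells grown in 96-well plates, with endpoints linearly interpolated between the two concentrations bracketing the appropriate inhibition level. Abbreviation: GI50, concentration required for 50% inhibition of growth.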 Calls of active or inactive are those of the source. Rule as the data show it: active = GI50 up to about 1.1 µM and inactive = higher.

Holding throughout (experiment): DTP human tumour cell line panel, 48 h
In assay [1] the test system is SK-MEL-5.
Assay [2] has as its system RXF 393.
For assay [3], the system named is OVCAR-8.
Assay [4] concerns NCI-H460.
In assay [5] the test system is TK-10.
Assay [6] deals with UACC-62.
Assay [7] concerns HOP-62.
The subject of assay [8] is LOX IMVI.
Assay [9] concerns NCI/ADR-RES.
Assay [10] relates to HCT-15.
Assay [11] has as its system UACC-257.
Assay [12] has as its system HCT-116.
Assay [13] deals with A549.
Assay [14] deals with EKVX.
Assay [15] relates to 786-0.
For assay [16], the system named is SNB-75.
For assay [17], the system named is OVCAR-5.
The test system of assay [18] is Malme-3M.
The subject of assay [19] is HOP-92.
Assay [20] relates to SK-MEL-28.

Consider `Cc1ccc(-c2cs/c(=N\c3ccccc3)n2NC(=O)c2ccncc2)cc1`, for which the GI50 (commonly the concentration that inhibits growth by half) in assay [1] is 18.7 µM (inactive); in assay [2] it was 35.2 µM (inactive); in [3], 25.8 µM (inactive); in assay [4] it was 36.3 µM (inactive); in assay [5] it was > 54.7 µM (inactive); in assay [6], 20.5 µM (inactive). Besides, the GI50 in assay [7] was 39.4 µM (inactive); in assay [8], 34.2 µM (inactive); in assay [9], 28.3 µM (inactive); in assay [10] it was 42.5 µM; in [11], 37.3 µM (inactive); in [12] it was 31.8 µM (inactive). Moreover, the GI50 in assay [13] was 31.8 µM (inactive); in assay [14], 37.3 µM (inactive); in [15] it was 48 µM (inactive); in assay [16], 50.6 µM (inactive); in [17], 40.8 µM (inactive); in assay [18], 43.3 µM (inactive). The GI50 in assay [19] was 88.5 µM (inactive); in [20], 36.6 µM (inactive).
Turning to `Cc1nc2cc(/N=N/c3c(O)ccc4ccccc34)ccc2[nH]1`, the GI50 is 31.9 µM (inactive) in [1]; > 42.4 µM (inactive) in assay [2]; 27.4 µM (inactive) in assay [3]; 34.8 µM (inactive) in [4]; > 76.2 µM (inactive) in [5]; 46.3 µM (inactive) in assay [6]. Further, the GI50 in [7] is > 64.7 µM (inactive); in [8], 18.5 µM (inactive); in assay [9] it was 24.3 µM (inactive); in [10], 32.3 µM; in assay [11], 24.8 µM (inactive); in [12], 23.3 µM (inactive). Also, the GI50 was 44.5 µM (inactive) in assay [13]; > 49.9 µM (inactive) in assay [14]; 22 µM (inactive) in assay [15]; > 72.1 µM (inactive) in assay [16]; > 75.5 µM (inactive) in assay [17]; > 51.2 µM (inactive) in assay [18]. Further, the GI50 in assay [19] is 24 µM (inactive); in assay [20], 98.6 µM (inactive).
On to `CCOc1ccc2nc3cc(/N=N/c4ccc(N)nc4N)ccc3c(N)c2c1`, for which the GI50 in assay [1] was 17.3 µM (inactive); in [2] it was 2.19 µM (inactive); in [3] it was 2.73 µM (inactive); in [4] it was 21.3 µM (inactive); in [5], 13.9 µM (inactive); in assay [6], 14.8 µM (inactive). Besides, the GI50 in assay [7] is 3.75 µM (inactive); in assay [8], 0.419 µM (active); in [9] it was > 88.1 µM (inactive); in assay [10], 37.8 µM; in assay [11] it was 19.1 µM (inactive); in assay [12], 1.66 µM (inactive). For the same molecule, the GI50 in assay [13] is 15 µM (inactive); in assay [14] it was 7.96 µM (inactive); in assay [15] it was 1.46 µM (inactive); in assay [16] it was 1.41 µM (inactive); in assay [17], 21.1 µM (inactive); in [18] it was 4.45 µM (inactive). Also, the GI50 in assay [19] is 9.06 µM (inactive); in [20], 15.6 µM (inactive).
For `Cc1ccc2c(O)cc(-c3ccc(Cl)cc3)nc2n1`, the GI50 in [1] was 3.47 µM (inactive); in assay [2] it was 27.2 µM (inactive); in assay [3] it was 9.33 µM (inactive); in [4], 3.69 µM (inactive); in assay [5] it was 21.2 µM (inactive); in assay [6] it was 5.15 µM (inactive). For the same molecule, the GI50 in [7] was 9.16 µM (inactive); in [8], 4.93 µM (inactive); in assay [9], 8.89 µM (inactive); in [10], 3.31 µM; in assay [11], 15.6 µM (inactive); in [12], 3.1 µM (inactive). In addition, the GI50 was 2.73 µM (inactive) in assay [13]; 18 µM (inactive) in assay [14]; 5.38 µM (inactive) in [15]; 8.24 µM (inactive) in assay [16]; > 39.3 µM (inactive) in assay [17]; 3.74 µM (inactive) in assay [18]. For the same molecule, the GI50 in [19] was 13.6 µM (inactive); in assay [20] it was 9.66 µM (inactive).
